According to PubChem BioAssay (NCI):
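Exposure lasted 48 hours, with cells grown in 96-well plates and compounds tested at five concentrations. Definition used: TGI = concentration required for complete inhibition of growth.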

Columns and labels:
Assay in all cases: NCI tumour cell line growth inhibition, 48 h
EKVX NSCLC = system: EKVX NSCLC
COLO 205 colon = system: COLO 205 colon
NCI-H226 lung = system: NCI-H226 lung
MCF7 breast = system: MCF7 breast
ACHN renal = system: ACHN renal
SK-OV-3 ovarian = system: SK-OV-3 ovarian
MDA-MB-435 = system: MDA-MB-435
UACC-62 melanoma = system: UACC-62 melanoma
HT29 colon = system: HT29 colon
TK-10 renal = system: TK-10 renal
NCI-H522 lung = system: NCI-H522 lung
SF-295 CNS = system: SF-295 CNS
SF-268 CNS = system: SF-268 CNS
T-47D breast = system: T-47D breast
OVCAR-5 ovarian = system: OVCAR-5 ovarian
UO-31 renal = system: UO-31 renal
BT-549 breast = system: BT-549 breast
IGROV1 ovarian = system: IGROV1 ovarian
M14 melanoma = system: M14 melanoma
LOX IMVI melanoma = system: LOX IMVI melanoma
K-562 leukemia = system: K-562 leukemia
UACC-257 melanoma = system: UACC-257 melanoma
A498 renal = system: A498 renal
HCT-116 colon = system: HCT-116 colon
SK-MEL-28 melanoma = system: SK-MEL-28 melanoma
CCRF-CEM leukemia = system: CCRF-CEM leukemia
OVCAR-4 ovarian = system: OVCAR-4 ovarian
786-0 renal = system: 786-0 renal
NCI-H23 lung = system: NCI-H23 lung
SK-MEL-2 melanoma = system: SK-MEL-2 melanoma
SF-539 CNS = system: SF-539 CNS
SNB-75 CNS = system: SNB-75 CNS
HOP-92 NSCLC = system: HOP-92 NSCLC
DU-145 prostate = system: DU-145 prostate
CAKI-1 renal = system: CAKI-1 renal
HOP-62 NSCLC = system: HOP-62 NSCLC
PC-3 prostate = system: PC-3 prostate
MALME-3M melanoma = system: MALME-3M melanoma
HL-60(TB) leukemia = system: HL-60(TB) leukemia
RPMI-8226 leukemia = system: RPMI-8226 leukemia
SN12C renal = system: SN12C renal
MOLT-4 leukemia = system: MOLT-4 leukemia
HCT-15 colon = system: HCT-15 colon
RXF 393 renal = system: RXF 393 renal
A549 NSCLC = system: A549 NSCLC
NCI/ADR-RES ovarian = system: NCI/ADR-RES ovarian
MDA-MB-231 breast = system: MDA-MB-231 breast
SNB-19 CNS = system: SNB-19 CNS
OVCAR-8 ovarian = system: OVCAR-8 ovarian
MDA-N = system: MDA-N
HS 578T breast = system: HS 578T breast
SK-MEL-5 melanoma = system: SK-MEL-5 melanoma
OVCAR-3 ovarian = system: OVCAR-3 ovarian
U251 CNS = system: U251 CNS
NCI-H460 lung = system: NCI-H460 lung
SR leukemia = system: SR leukemia
SW-620 colon = system: SW-620 colon
KM12 colon = system: KM12 colon
HCC-2998 colon = system: HCC-2998 colon

Which results are given for `Cc1cc(Cc2c(F)c(F)c(Cc3cc(C)no3)c(F)c2F)on1`?
TGI (EKVX NSCLC): > 100 µM; TGI (COLO 205 colon): > 100 µM; TGI (NCI-H226 lung): > 100 µM; TGI (MCF7 breast): > 100 µM; TGI (ACHN renal): > 100 µM; TGI (SK-OV-3 ovarian): > 100 µM; TGI (MDA-MB-435): > 100 µM; TGI (UACC-62 melanoma): > 100 µM; TGI (HT29 colon): > 100 µM; TGI (TK-10 renal): > 100 µM; TGI (NCI-H522 lung): > 100 µM; TGI (SF-295 CNS): > 100 µM; TGI (SF-268 CNS): > 100 µM; TGI (T-47D breast): > 100 µM; TGI (OVCAR-5 ovarian): > 100 µM; TGI (UO-31 renal): > 100 µM; TGI (BT-549 breast): > 100 µM; TGI (IGROV1 ovarian): > 100 µM; TGI (M14 melanoma): > 100 µM; TGI (LOX IMVI melanoma): > 100 µM; TGI (K-562 leukemia): > 100 µM; TGI (UACC-257 melanoma): > 100 µM; TGI (A498 renal): > 100 µM; TGI (HCT-116 colon): > 100 µM; TGI (SK-MEL-28 melanoma): > 100 µM; TGI (CCRF-CEM leukemia): > 100 µM; TGI (OVCAR-4 ovarian): > 100 µM; TGI (786-0 renal): > 100 µM; TGI (NCI-H23 lung): > 100 µM; TGI (SK-MEL-2 melanoma): > 100 µM; TGI (SF-539 CNS): > 100 µM; TGI (SNB-75 CNS): 76.7 µM; TGI (HOP-92 NSCLC): > 100 µM; TGI (DU-145 prostate): > 100 µM; TGI (CAKI-1 renal): 24.6 µM; TGI (HOP-62 NSCLC): 62.8 µM; TGI (PC-3 prostate): > 100 µM; TGI (MALME-3M melanoma): > 100 µM; TGI (HL-60(TB) leukemia): > 100 µM; TGI (RPMI-8226 leukemia): > 100 µM; TGI (SN12C renal): > 100 µM; TGI (MOLT-4 leukemia): > 100 µM; TGI (HCT-15 colon): > 100 µM; TGI (RXF 393 renal): > 100 µM; TGI (A549 NSCLC): 25.8 µM; TGI (NCI/ADR-RES ovarian): > 100 µM; TGI (MDA-MB-231 breast): > 100 µM; TGI (SNB-19 CNS): > 100 µM; TGI (OVCAR-8 ovarian): > 100 µM; TGI (MDA-N): > 100 µM; TGI (HS 578T breast): > 100 µM; TGI (SK-MEL-5 melanoma): > 100 µM; TGI (OVCAR-3 ovarian): > 100 µM; TGI (U251 CNS): > 100 µM

With `Cc1c2c3cc(O)ccc3nc-2n(C)c2ccccc12` as the molecule, how does the TGI (EKVX NSCLC) read?
The TGI was 6.91 µM.

What about the TGI (NCI-H226 lung) of the same molecule?
The TGI was 8.54 µM.

What about the TGI (NCI-H460 lung) of the same molecule?
The TGI was 5.11 µM.

What about the TGI (MCF7 breast) of the same molecule?
Its TGI is 9.82 µM.

And the TGI (ACHN renal)?
The TGI was 10.3 µM.

And the TGI (SK-OV-3 ovarian)?
Its TGI is 6.22 µM.

What about the TGI (MDA-MB-435) of the same molecule?
Its TGI is 4.62 µM.

And the TGI (UACC-62 melanoma)?
The TGI was 3.21 µM.

And the TGI (HT29 colon)?
Its TGI is 7.26 µM.

And the TGI (TK-10 renal)?
The TGI was 9.82 µM.

And the TGI (SF-295 CNS)?
Its TGI is 13 µM.

What about the TGI (SR leukemia) of the same molecule?
The TGI was 21.3 µM.

And the TGI (SF-268 CNS)?
The TGI was 8.02 µM.

What about the TGI (T-47D breast) of the same molecule?
The TGI was 17.1 µM.

What about the TGI (OVCAR-5 ovarian) of the same molecule?
The TGI was 8.85 µM.

And the TGI (UO-31 renal)?
Its TGI is 2.72 µM.

And the TGI (BT-549 breast)?
The TGI was 8.52 µM.

What about the TGI (IGROV1 ovarian) of the same molecule?
Its TGI is 8.92 µM.

What about the TGI (M14 melanoma) of the same molecule?
Its TGI is 4.6 µM.

What about the TGI (K-562 leukemia) of the same molecule?
The TGI was 7.5 µM.

And the TGI (UACC-257 melanoma)?
The TGI was 8.05 µM.

And the TGI (HCT-116 colon)?
The TGI was 10.1 µM.

What about the TGI (SK-MEL-28 melanoma) of the same molecule?
The TGI was 5.97 µM.

What about the TGI (CCRF-CEM leukemia) of the same molecule?
The TGI was 4.37 µM.

And the TGI (786-0 renal)?
The TGI was 10.5 µM.

And the TGI (NCI-H23 lung)?
The TGI was 8.61 µM.

And the TGI (SF-539 CNS)?
Its TGI is 4.98 µM.

What about the TGI (SNB-75 CNS) of the same molecule?
The TGI was 5.83 µM.

And the TGI (HOP-92 NSCLC)?
The TGI was 5.21 µM.

What about the TGI (DU-145 prostate) of the same molecule?
Its TGI is 14.3 µM.

And the TGI (HOP-62 NSCLC)?
Its TGI is 7.99 µM.

What about the TGI (PC-3 prostate) of the same molecule?
The TGI was 5.94 µM.

And the TGI (MALME-3M melanoma)?
Its TGI is 3.44 µM.

What about the TGI (HL-60(TB) leukemia) of the same molecule?
Its TGI is 19.8 µM.

And the TGI (RPMI-8226 leukemia)?
Its TGI is over 100 µM.

And the TGI (SN12C renal)?
Its TGI is 4.38 µM.

And the TGI (MOLT-4 leukemia)?
The TGI was 3.32 µM.

And the TGI (HCT-15 colon)?
Its TGI is 10.5 µM.

What about the TGI (RXF 393 renal) of the same molecule?
Its TGI is 2.86 µM.

And the TGI (A549 NSCLC)?
Its TGI is 3.48 µM.

What about the TGI (NCI/ADR-RES ovarian) of the same molecule?
Its TGI is 3.4 µM.

What about the TGI (SNB-19 CNS) of the same molecule?
The TGI was 15.1 µM.

What about the TGI (OVCAR-8 ovarian) of the same molecule?
Its TGI is 10.6 µM.

What about the TGI (MDA-N) of the same molecule?
The TGI was 8.37 µM.

What about the TGI (SW-620 colon) of the same molecule?
The TGI was 2.7 µM.

What about the TGI (HS 578T breast) of the same molecule?
Its TGI is 8.21 µM.

And the TGI (KM12 colon)?
The TGI was 5.28 µM.

And the TGI (SK-MEL-5 melanoma)?
The TGI was 2.29 µM.

What about the TGI (OVCAR-3 ovarian) of the same molecule?
Its TGI is 6.07 µM.

What about the TGI (U251 CNS) of the same molecule?
The TGI was 6.91 µM.

And the TGI (HCC-2998 colon)?
Its TGI is 6.28 µM.
